Reference: PubChem BioAssay AID248 (DTP/NCI, 2004)
Toxic doses and inconclusive results are not listed. Rule as the data show it: active = T/C of 150% or more; inactive = T/C below 125%.

Tested on: L1210 leukemia ip in BDF1 mice, survival T/C
Experiment: NCI In Vivo Anticancer Drug Screen. Data for tumor model L1210 Leukemia (intraperitoneal) in B6D2F1 (BDF1) mice
Details: endpoint: mean survival time, higher = longer survival
In short: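 Transplanted-tumor mice were given test agent; controls received vehicle only. Survival readings from the two groups were divided (treated over control).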

[1] = dose: 100.0 mg/kg/injection, schedule: Q04DX003 (ip), vehicle: saline
[2] = dose: 200.0 mg/kg/injection, schedule: Q04DX003 (ip), vehicle: saline
[3] = dose: 100.0 mg/kg/injection, schedule: Q04DX003 (ip), vehicle: Klucel (hydroxypropylcellulose) (HPC)
[4] = dose: 200.0 mg/kg/injection, schedule: Q04DX003 (ip), vehicle: Klucel (hydroxypropylcellulose) (HPC)
[5] = dose: 400.0 mg/kg/injection, schedule: Q04DX003 (ip), vehicle: Klucel (hydroxypropylcellulose) (HPC)
[6] = dose: 25.0 mg/kg/injection, schedule: Q01DX009 (ip), vehicle: Klucel (hydroxypropylcellulose) (HPC)
[7] = dose: 50.0 mg/kg/injection, schedule: Q01DX009 (ip), vehicle: Klucel (hydroxypropylcellulose) (HPC)
[8] = dose: 100.0 mg/kg/injection, schedule: Q01DX009 (ip), vehicle: Klucel (hydroxypropylcellulose) (HPC)
[9] = dose: 200.0 mg/kg/injection, schedule: Q01DX009 (ip), vehicle: Klucel (hydroxypropylcellulose) (HPC)
[10] = dose: 100.0 mg/kg/injection, schedule: Q01DX001 (ip), vehicle: saline
[11] = dose: 200.0 mg/kg/injection, schedule: Q01DX001 (ip), vehicle: saline

Measured: T/C

Nc1nc(N)c2nn(-c3ccc(C(=O)O)cc3)nc2n1
inactive: dose: 75.0 mg/kg/injection, schedule: Q01DX001 (ip), vehicle: saline 87 % of control | dose: 150.0 mg/kg/injection, schedule: Q01DX001 (ip), vehicle: saline 86 % of control | dose: 300.0 mg/kg/injection, schedule: Q01DX001 (ip), vehicle: saline 103 % of control

CCCCCCCCCCCCCCCCCC(=O)OC1C(CO)OC2C1Oc1nc(=N)ccn12 (centres undefined)
inactive: dose: 200.0 mg/kg/injection, schedule: Q01DX009 (ip), vehicle: other 120 % of control
active: dose: 12.5 mg/kg/injection, schedule: Q01DX009 (ip), vehicle: other 165 % of control | dose: 25.0 mg/kg/injection, schedule: Q01DX009 (ip), vehicle: other 190 % of control | dose: 50.0 mg/kg/injection, schedule: Q01DX009 (ip), vehicle: other 235 % of control | dose: 100.0 mg/kg/injection, schedule: Q01DX009 (ip), vehicle: other 283 % of control

CC(CO)(CO)Cc1ccccc1
inactive: dose: 100.0 mg/kg/injection, schedule: Q04DX002 (ip), vehicle: saline with Tween-80 97 % of control | dose: 200.0 mg/kg/injection, schedule: Q04DX002 (ip), vehicle: saline with Tween-80 108 % of control | dose: 400.0 mg/kg/injection, schedule: Q04DX002 (ip), vehicle: saline with Tween-80 120 % of control

NC(=N\C1=NCCO1)/C(N)=N/C1=NCCO1
inactive: [1] 109 % of control | [2] 107 % of control | dose: 400.0 mg/kg/injection, schedule: Q04DX003 (ip), vehicle: saline 97 % of control

CCOc1ccc(/C=C(\NC(=O)c2ccccc2)C(=O)Nc2ccccc2)cc1OC
inactive: [3] 100 % of control | [4] 87 % of control | [5] 91 % of control

O=C(NNC(=S)Nc1cccc(Cl)c1)c1ccncc1
inactive: [6] 104 % of control | [7] 96 % of control | [8] 96 % of control

O=c1[nH]cnc2c1ncn2CCCCc1ccccc1
inactive: dose: 100.0 mg/kg/injection, schedule: Q04DX002 (ip), vehicle: Klucel (hydroxypropylcellulose) (HPC) 108 % of control | dose: 200.0 mg/kg/injection, schedule: Q04DX002 (ip), vehicle: Klucel (hydroxypropylcellulose) (HPC) 101 % of control | dose: 400.0 mg/kg/injection, schedule: Q04DX002 (ip), vehicle: Klucel (hydroxypropylcellulose) (HPC) 105 % of control

C[C@]12CC[C@H]3[C@@H](CC[C@]4(O)C[C@@H](O)CC[C@]34C=O)[C@@]1(O)CC[C@@H]2C1=CC(=O)OC1
inactive: dose: 12.5 mg/kg/injection, schedule: Q01DX009 (ip), vehicle: Klucel (hydroxypropylcellulose) (HPC) 102 % of control | [6] 104 % of control | dose: 50.0 mg/kg/injection, schedule: Q01DX001 (ip), vehicle: carboxymethylcellulose (CMC) 98 % of control | [7] 102 % of control | dose: 50.0 mg/kg/injection, schedule: Q01DX009 (ip), vehicle: carboxymethylcellulose (CMC) 103 % of control | dose: 75.0 mg/kg/injection, schedule: Q04DX003 (ip), vehicle: Klucel (hydroxypropylcellulose) (HPC) 102 % of control | dose: 100.0 mg/kg/injection, schedule: Q01DX001 (ip), vehicle: carboxymethylcellulose (CMC) 96 % of control | [8] 109 % of control | dose: 100.0 mg/kg/injection, schedule: Q01DX009 (ip), vehicle: carboxymethylcellulose (CMC) 108 % of control | dose: 150.0 mg/kg/injection, schedule: Q04DX003 (ip), vehicle: Klucel (hydroxypropylcellulose) (HPC) 98 % of control | dose: 200.0 mg/kg/injection, schedule: Q01DX001 (ip), vehicle: carboxymethylcellulose (CMC) 93 % of control | [9] 112 % of control | dose: 300.0 mg/kg/injection, schedule: Q04DX003 (ip), vehicle: Klucel (hydroxypropylcellulose) (HPC) 101 % of control

Cc1ccccc1/C=C1\CC(C)(C)c2ccccc2C1=O
inactive: [8] 105 % of control | [3] 95 % of control | [9] 97 % of control | [4] 95 % of control | dose: 400.0 mg/kg/injection, schedule: Q01DX009 (ip), vehicle: Klucel (hydroxypropylcellulose) (HPC) 97 % of control | [5] 97 % of control

O=C1C=CC(=O)N1c1ccc2c(c1)oc(=O)c1ccccc12
inactive: dose: 37.5 mg/kg/injection, schedule: Q01DX009 (ip), vehicle: saline with Tween-80 92 % of control | dose: 50.0 mg/kg/injection, schedule: Q04DX003 (ip), vehicle: saline 96 % of control | [10] 97 % of control | [1] 96 % of control | [11] 92 % of control | [2] 97 % of control

O=C(O)c1ccc2c3c(ccc([N+](=O)[O-])c13)C=C2
inactive: dose: 100.0 mg/kg/injection, schedule: Q04DX003 (ip), vehicle: saline with Tween-80 96 % of control | dose: 200.0 mg/kg/injection, schedule: Q04DX003 (ip), vehicle: saline with Tween-80 94 % of control | dose: 400.0 mg/kg/injection, schedule: Q04DX003 (ip), vehicle: saline with Tween-80 103 % of control

COC(=O)CCC(N=C=O)C(=O)OC (centres undefined)
inactive: [10] 101 % of control | [11] 98 % of control | dose: 400.0 mg/kg/injection, schedule: Q01DX001 (ip), vehicle: saline 106 % of control
